Experimental data reported in patent publication US20260256751A1, “COMBINATION OF BETA-2-ADRENERGIC RECEPTOR AGONISTS AND GLP-1 RECEPTOR AGONISTS FOR USE IN TREATING HYPERGLYCAEMIA” (ATROGI AB, priority 2023, published 2026).

Key:
[1] = test system: differentiated L6-myotubes; assay: cAMP production relative to isoprenaline (Biological example 2 of WO 2019/053427); type: cell-based; details: 0.25 h, compound at 10 μM, activity relative to isoproterenol at 10 μM
Procedure, shortened: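 Differentiated L6 myotubes stimulated 15 min with test compound or isoprenaline, each at final 1×10^−5 M, in HBSS with 1% BSA, 5 mM HEPES, 1 mM IBMX, pH 7.4. cAMP production by the compound expressed relative to that induced by the same concentration of isoprenaline.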

[2] = test system: differentiated L6-myotubes; assay: Glucose uptake screen (Biological example 1 of WO 2019/053427); type: cell-based; details: compound at 10 μM, activity relative to isoproterenol at 10 μM, read-out: Biological example 1 of WO 2019/053427 (GU)
Procedure, shortened: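 Rat L6 myoblasts were differentiated into myotubes over 7 days in 2% FBS, then serum-starved overnight. Cells were stimulated with 1×10^−5 M compound plus β2 antagonist ICI-118551 for 1 h 40 min and re-dosed for 20 min in glucose-free medium. Uptake of 50 nM ^3H-2-deoxyglucose over 10 min was counted after NaOH lysis.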

Structure (SMILES) | Emax at 10 µM [1] [%] | Emax at 10 µM [2] [%]
CO[C@H]1CC[C@H](C[C@]2(C)CC[C@H]([C@@H](O)c3cccc(F)c3)N2)CC1 [Compound 363, (S)-[(2R,5S)-5-methyl-5-{[(1r,4S)-4-methoxycyclohexyl]methyl}-2-pyrrolidinyl](m-fluorophenyl)methanol] | < 25 | > 75
CO[C@H]1CC[C@H](C[C@]2(C)CC[C@H]([C@H](O)c3cccc(F)c3)N2)CC1 [Compound 364, (R)-[(2R,5S)-5-methyl-5-{[(1r,4S)-4-methoxycyclohexyl]methyl}-2-pyrrolidinyl](m-fluorophenyl)methanol] | 50 to 75 | > 75
COc1ccc(C[C@@]2(C)CC[C@H]([C@@H](O)c3cccc(F)c3)N2)cc1 [Compound 365, (S)-{(2R,5R)-5-[(p-methoxyphenyl)methyl]-5-methyl-2-pyrrolidinyl}(m-fluorophenyl)methanol] | < 25 | > 75
COc1ccc(C[C@@]2(C)CC[C@H]([C@H](O)c3cccc(F)c3)N2)cc1 [Compound 366, (R)-{(2R,5R)-5-[(p-methoxyphenyl)methyl]-5-methyl-2-pyrrolidinyl}(m-fluorophenyl)methanol] | 25 to 50 | > 75
COC(=O)[C@H]1CC[C@H](C(C)(C)NC[C@H](O)c2cccc(F)c2)CC1 [Compound 367, (1R,4r)-8-[(R)-2-(m-fluorophenyl)-2-hydroxyethylamino]-7-methoxy-p-menthan-7-one] | 25 to 50 | > 75
CC(C)(NC[C@H](O)c1cccc(F)c1)[C@H]1CC[C@H](C(=O)O)CC1 [Compound 368, (1R,4r)-8-[(R)-2-(m-fluorophenyl)-2-hydroxyethylamino]-7-hydroxy-p-menthan-7-one] | < 25 | 25 to 50
CC(C)(NC[C@H](O)c1cccc(F)c1)[C@H]1CC[C@@H](C(=O)O)CC1 [Compound 369, (1S,4s)-8-[(R)-2-(m-fluorophenyl)-2-hydroxyethylamino]-7-hydroxy-p-menthan-7-one] | < 25 | 50 to 75
COC(=O)[C@H]1CC[C@H](C(C)(C)NC[C@H](O)c2cncc(F)c2)CC1 [Compound 370, (1R,4r)-8-[(R)-2-(5-fluoro-3-pyridyl)-2-hydroxyethylamino]-7-methoxy-p-menthan-7-one] | < 25 | > 75
CC(C)(C[C@H]1CC[C@H](N)CC1)NC[C@H](O)c1cccc(F)c1 [Compound 371, (R)-2-{1,1-dimethyl-2-[(1r,4R)-4-aminocyclohexyl]ethylamino}-1-(m-fluorophenyl)-1-ethanol] | < 25 | > 75
COc1ccc(C[C@@H]2CC[C@H]([C@@H](O)c3cccc(F)c3)N2)cc1 [Compound 372, (S)-{(2R,5S)-5-[(p-methoxyphenyl)methyl]-2-pyrrolidinyl}(m-fluorophenyl)methanol] | < 25 | > 75
COc1ccc(C[C@@H]2CC[C@H]([C@H](O)c3cccc(F)c3)N2)cc1 [Compound 373, (R)-{(2R,5S)-5-[(p-methoxyphenyl)methyl]-2-pyrrolidinyl}(m-fluorophenyl)methanol] | 25 to 50 | > 75
COc1ccc(C[C@H]2CC[C@H]([C@H](O)c3cccc(F)c3)N2)cc1 [Compound 374, (R)-{(2R,5R)-5-[(p-methoxyphenyl)methyl]-2-pyrrolidinyl}(m-fluorophenyl)methanol] | < 25 | > 75
COc1ccc(C[C@H]2CC[C@H]([C@@H](O)c3cccc(F)c3)N2)cc1 [Compound 375, (S)-{(2R,5R)-5-[(p-methoxyphenyl)methyl]-2-pyrrolidinyl}(m-fluorophenyl)methanol] | < 25 | > 75
Cc1ncccc1[C@@H](O)CNC(C)(C)C [Compound 376, (R)-2-(tert-butylamino)-1-(2-methyl-3-pyridyl)-1-ethanol] | 25 to 50 | > 75
